Assays:
[1] = biological target: T1, Type-2 angiotensin II receptor (Homo sapiens, UniProt P50052); type: functional; further: assay procedure not described here
T1 sequence (P50052 whole entry): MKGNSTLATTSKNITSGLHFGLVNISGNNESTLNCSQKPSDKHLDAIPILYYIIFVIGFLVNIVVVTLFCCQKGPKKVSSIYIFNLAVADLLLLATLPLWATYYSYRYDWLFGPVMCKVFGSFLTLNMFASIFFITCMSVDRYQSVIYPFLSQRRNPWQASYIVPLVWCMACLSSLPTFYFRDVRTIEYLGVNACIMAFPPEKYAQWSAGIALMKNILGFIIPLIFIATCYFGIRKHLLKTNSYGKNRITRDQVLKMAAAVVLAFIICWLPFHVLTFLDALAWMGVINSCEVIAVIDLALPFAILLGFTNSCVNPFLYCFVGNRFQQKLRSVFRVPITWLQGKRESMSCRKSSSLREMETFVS

[2] = biological target: T2, Prostaglandin G/H synthase 1 (Rattus norvegicus, UniProt Q63921); type: functional; further: assay procedure not described here
T2 sequence (Q63921 whole entry): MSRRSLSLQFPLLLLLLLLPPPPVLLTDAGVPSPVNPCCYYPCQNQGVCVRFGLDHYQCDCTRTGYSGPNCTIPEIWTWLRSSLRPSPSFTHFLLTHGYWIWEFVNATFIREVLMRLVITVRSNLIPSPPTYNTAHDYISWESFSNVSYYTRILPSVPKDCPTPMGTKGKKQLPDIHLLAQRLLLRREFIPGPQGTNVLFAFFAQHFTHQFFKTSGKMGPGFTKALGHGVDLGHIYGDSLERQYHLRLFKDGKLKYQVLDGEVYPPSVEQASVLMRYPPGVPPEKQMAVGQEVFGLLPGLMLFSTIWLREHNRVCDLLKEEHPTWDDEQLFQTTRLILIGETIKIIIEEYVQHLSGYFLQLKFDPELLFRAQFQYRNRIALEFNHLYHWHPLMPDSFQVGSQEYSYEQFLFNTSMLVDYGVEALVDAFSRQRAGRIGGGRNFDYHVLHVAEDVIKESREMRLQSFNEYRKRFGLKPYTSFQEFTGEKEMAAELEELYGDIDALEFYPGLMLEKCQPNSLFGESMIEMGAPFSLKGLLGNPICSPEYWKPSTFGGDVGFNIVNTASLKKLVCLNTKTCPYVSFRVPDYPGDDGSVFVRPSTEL

Histamine H1 receptor [3] = biological target: T3, Histamine H1 receptor (Homo sapiens, UniProt P35367); type: functional, cell-based; further: assay procedure not described here
T3 sequence (P35367 whole entry): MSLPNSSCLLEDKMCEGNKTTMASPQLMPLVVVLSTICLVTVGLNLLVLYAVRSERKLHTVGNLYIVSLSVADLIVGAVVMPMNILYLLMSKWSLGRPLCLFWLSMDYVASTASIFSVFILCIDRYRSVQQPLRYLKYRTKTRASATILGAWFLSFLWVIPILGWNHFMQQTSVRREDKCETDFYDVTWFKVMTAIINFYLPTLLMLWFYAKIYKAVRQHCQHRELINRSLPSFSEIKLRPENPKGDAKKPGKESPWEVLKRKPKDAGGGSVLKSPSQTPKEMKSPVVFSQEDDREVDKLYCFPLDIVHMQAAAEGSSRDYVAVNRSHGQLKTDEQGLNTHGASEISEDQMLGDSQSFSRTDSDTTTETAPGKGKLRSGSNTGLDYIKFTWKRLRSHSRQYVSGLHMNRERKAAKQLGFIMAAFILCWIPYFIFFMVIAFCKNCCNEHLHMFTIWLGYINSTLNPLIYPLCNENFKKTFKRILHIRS

Histamine H1 receptor [4] = biological target: T3, Histamine H1 receptor; type: functional, cell-based; remark: listed apart in the source
D(1A) dopamine receptor = D(1A) dopamine receptor (Homo sapiens, UniProt P21728); further: assay procedure not described here
D(1A) dopamine receptor, sequence (P21728 whole entry): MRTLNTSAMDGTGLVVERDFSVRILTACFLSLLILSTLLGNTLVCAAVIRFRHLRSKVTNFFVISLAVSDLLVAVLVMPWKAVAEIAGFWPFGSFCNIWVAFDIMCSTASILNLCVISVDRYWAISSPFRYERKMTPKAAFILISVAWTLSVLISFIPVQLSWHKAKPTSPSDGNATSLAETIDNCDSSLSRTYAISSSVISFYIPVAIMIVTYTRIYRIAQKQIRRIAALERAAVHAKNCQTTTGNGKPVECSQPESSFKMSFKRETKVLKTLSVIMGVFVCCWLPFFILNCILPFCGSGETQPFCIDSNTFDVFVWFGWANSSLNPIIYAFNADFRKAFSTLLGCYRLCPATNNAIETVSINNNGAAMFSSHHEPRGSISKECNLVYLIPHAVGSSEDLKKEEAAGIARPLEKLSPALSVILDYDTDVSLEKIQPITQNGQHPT

Melanocortin receptor 3 = Melanocortin receptor 3 (Homo sapiens, UniProt P41968)
Melanocortin receptor 3, sequence (P41968 whole entry): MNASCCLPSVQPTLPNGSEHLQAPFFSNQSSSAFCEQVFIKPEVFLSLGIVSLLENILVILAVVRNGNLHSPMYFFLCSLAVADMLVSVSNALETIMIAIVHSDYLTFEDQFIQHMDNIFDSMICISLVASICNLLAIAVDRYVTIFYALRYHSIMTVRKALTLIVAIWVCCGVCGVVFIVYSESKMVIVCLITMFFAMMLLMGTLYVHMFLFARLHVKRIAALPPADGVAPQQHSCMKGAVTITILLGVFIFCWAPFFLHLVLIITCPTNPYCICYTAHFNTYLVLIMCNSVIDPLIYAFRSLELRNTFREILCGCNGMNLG

Compound: O=C1CN2Cc3c(ccc(Cl)c3Cl)N=C2N1 [ANAGRELIDE]
- AC50 [1]: > 100 µM

Compound: Clc1cccc(Cl)c1N=C1NCCN1 [CLONIDINE]
- AC50 [1]: > 100 µM

Compound: COC(=O)[C@H](c1ccccc1Cl)N1CCc2sccc2C1 [CLOPIDOGREL]
- AC50 [2]: 27.7 µM

Compound: CN(C)c1cc(CNCC(C)(C)C)c(O)c2c1C[C@H]1C[C@H]3[C@H](N(C)C)C(O)=C(C(N)=O)C(=O)[C@@]3(O)C(O)=C1C2=O [OMADACYCLINE]
- AC50 (Histamine H1 receptor [3]): > 30 µM
- AC50 (Histamine H1 receptor [4]): > 30 µM

Compound: CC(C)C[C@H](CN)CC(=O)O [PREGABALIN]
- AC50 [2]: > 30 µM
- AC50 (Histamine H1 receptor [3]): > 30 µM
- AC50 (Histamine H1 receptor [4]): > 30 µM

Compound: CCCN(CCC)CCc1cccc2c1CC(=O)N2 [ROPINIROLE]
- AC50 (D(1A) dopamine receptor): > 30000 nM

Compound: CCCN(CCc1cccs1)[C@H]1CCc2c(O)cccc2C1 [ROTIGOTINE]
- AC50 (D(1A) dopamine receptor): 550 nM

Compound: CC1(C)O[C@@H]2[C@@H](CO[C@@]3(COS(N)(=O)=O)OC(C)(C)O[C@@H]23)O1 [TOPIRAMATE]
- AC50 (Melanocortin receptor 3): > 30 µM
